Where two headings read alike, the source gives them in different places.
Tests used:
[1] = system: experimental coronary insufficiency; test: Antianginal effect (glanduitrine-induced coronary insufficiency, Nieschultz); type: in vivo, rat (male); conditions: rat, glanduitrine 4 NE/kg i.v., T-wave; for inhibition in vivo at 2 mg/kg: Rat2, iv, read-out: Inhibition in a dose of 2 mg/kg; for ED50: iv
Protocol: The test was carried out on male rats weighing 180-220 g. The animals were narcotized with the aid of chloralose-urethane. ECG was registered by means of needle electrodes in standard II output. Antianginal effect was tested according to the method of Nieschultz. Experimental coronary insufficiency was induced by administering glanduitrine (4 NE/kg i.v.).

nervus ischiadicus = test: Local analgesic effect (Truant d'Amato); type: in vivo; conditions: 0.2 ml injected around nervus ischiadicus
Protocol: The test was carried out according to the method of Truant d'Amato. 0.2 ml of test material was injected around the nervus ischiadicus in the middle of femur with a needle of 1 cm length. The criterion of analgesic effect was the lack of the motoric control of foot muscles. The duration of effect was registered and the 50 percentile effective concentration (EC50) was calculated on the basis of the dose-effect curve. Lidocain was used as reference substance Truant d'Amato, A. P., Wiedling, S.: Acta Chir. Scand., 116, 351 (1958)].

nicotine spasm = test: Anticonvulsive activity: inhibition of nicotine spasm and lethality; type: in vivo; conditions: Mus musculus, 1 h; mice, oral, one hour before nicotine 1.4 mg/kg i.v.
Protocol: The inhibition of nicotine spasm and lethality was examined on mice according to the method of Stone. One hour after the oral treatment a dosage of 1.4 mg/kg of nicotine is injected intravenously, and the spasm developed as well as the lethality within 1 hour were recorded at both the test and control groups. [Stone, C. C., Mecklenburg, K. L., Torchiana, M. L.: Arch. Int. Pharmacodyn., 117, 419 (1958)].
(§1) The ED50 values were determined according to the method of Litchfield and Wilcoxon.

[2] = Acute toxicity on mice (oral LD50); conditions: mouse, in vivo, 7 days observation, maximal dose 1000 mg/kg
Protocol: Mice belonging to the NMRI strain (body weight 20-25 g, both male and female) were used, 6 to 10 animals for each dose. The test compound was administered orally in a volume of 20 ml/kg. The applied maximal dose was 1000 mg/kg. […] The mice were kept in a plastic cage at room temperature. The animals got tap water and standard mouse fodder ad libitum. The toxicity data were determined by the aid of the method of Litchfield and Wilcoxon [Litchfield, J. T., Wilcoxon, F. W.: J. Pharmacol. Exp. Ther., 96, 99 (1949)].

shocks tolerated = test: Anxiolytic effect (Vogel et al.); type: in vivo, rat (male Wistar); conditions: ip, 2 h; rat, intraperitoneal, two hours before testing; read-out: Anxiolytic effect MED
Protocol: The anxiolytic effect was tested by using the method of Vogel et al. Male Wistar rats of 160-180 g bodyweight were kept free of food and drinking water for 24 and 48 hours, respectively. Test and carrier substances were administered intraperitoneally two hours before testing. Animals within the experimental chamber were provided with drinking water through an inserted tube. After the animals' each twenty lapping for water the device emitted a 2 mA intensity electric shock through the drinking tube. During 5 minutes the shocks tolerated by the animals in order to quench their thirst were counted. The effect of treatment was expressed as the % increase of the tolerated shocks. The minimum effective dose (MED) was determined for each test compound [Voqel, J. R., Beer, B., Clody, D. E.: Psychopharmacologia (Berl.) 21, 1 (1971)].

spontaneous motility = test: Spontaneous motility inhibiting activity (Dews equipment); type: in vivo; conditions: Mus musculus, 0.5 h; oral, beam interruptions within 30 minutes; read-out: Motility inhibiting activity ID50
Protocol: The spontaneous motility inhibiting activity was examined according to the method of Borsy et al. Groups consisting of 3 mice each were treated orally with different doses of the compounds to be tested, then the test animals were placed in a Dews equipment. In this equipment the number of interruptions of infrared beam within 30 minutes was counted. […] [Borsy, J., Csanyi, E., Lazar, I.: Arch. Int.. Pharmacodyn. 124, 1 (1960)].

hexobarbital narcosis = test: Hexobarbital narcosis potentiating effect on mice; type: in vivo, mouse; conditions: oral; for ED50: Mus musculus, 1 hour before hexobarbital 40 mg/kg i.v., sleeping time >2.5 times control, read-out: ED50 hexobarbital narcosis potentiation
Protocol: The hexobarbital narcosis potentiating effect was examined on mice. Groups consisting of 6 animals were used for each dose. The animals were treated orally with the test compound, whereby sleeping was induced 1 hour later by administering a 40 mg/kg i.v. dose of hexobarbital both to the test and control groups. […] ED50 values were calculated from the thus-transformed data [Kaergaard Nielsen C. et al., Arch. Int. Pharmacodyn. 2, 170 (1967)].

pentetrazole spasm = test: Anticonvulsive activity: pentetrazole spasm inhibiting test; type: in vivo, mouse (NMRI); conditions: Mus musculus; mice, oral, 1 hour before pentetrazole 125 mg/kg i.p.; read-out: Inhibition of pentetrazole spasm, ED50
Protocol: The pentetrazole spasm inhibiting test was performed according to the modified method of Benziger and Hans. Groups of mice consisting of 6 animals each, belonging to the NMRI strain (body weight: 20-25 g), were treated orally with the compound to be tested and the vehicle without active agent, respectively. I hour after the treatment a dosage of 125 mg/kg of pentetrazole was administered to each animal, intraperitoneally, and the tonic spasm of the lower limb extensor was recorded [Benziger, R., Hans, D.: Arch. Int. Pharmacodyn., 167, 245 (1967)].
as §1

[3] = system: acetic acid writhing reactions; test: Analgesic effect (acetic acid writhing, Newbould); type: in vivo, mouse (NMRI); conditions: Mus musculus, 1 h; mice, 0.75% acetic acid one hour after treatment; read-out: Analgesic effect ID50
Protocol: The characteristic "writhing reactions" were counted for a period of 5 minutes, starting from the fifth minute after challenge. […] Each group of animals consisted of at least 10 mice. […]

catalepsy = test: Catalepsy; type: in vivo, rat (Wistar); conditions: rat; for Catalepsy MED: scored from 60 minutes after dosing, four hours
Protocol: The extrapyramidal syndrome, the most important side effect limiting the application of the neuroleptic drugs in man, can be produced in experimental animals in the form of catalepsy. Our experiments in 150-160 g Wistar rats were performed according to Morpurgo. The catalepsy, appearing 60 minutes after dosing, was scored as follows. Both forelegs of each animal were put for 10 seconds onto a rubber stopper of 3 cm height, then for additional 10 seconds onto a same stopper of 9 cm height. […] The procedure was repeated in each 30 minutes during four hours, obtaining scores proportional to the degree of the catalepsy. Results were used to calculate the minimum effective dose [MED, the lowest dose resulting statistically significant alteration, c.f.: Morpurgo, C.: Arch. Int.

[4] = system: learned conditioned avoidance reflex; test: Antipsychotic effect: inhibition of conditioned avoidance reflex (shuttle box); type: in vivo, rat (male Wistar); conditions: 1 h, read-out: Conditioned reflex ID50
Protocol: The antipsychotic (neuroleptic) effect was measured by the inhibition of the learned conditioned avoidance reflex. The male Wistar rats used for the study were of 120-150 g bodyweight at the commencement of learning. […] In response to a suitable warning stimulus, in order to avoid the punishing (unconditioned) stimulus, animals within the box passed through the gate from one part over the other. The warning, i.e. conditioned stimulus (CS), a white light (1 Hz) blinking for 15 seconds, was applied at the place of the actual animal existence. The unconditioned stimulus (US), in form of 0.6 mA intensity electric shock, was randomly applied to the paw during the last 5 seconds of the conditioned stimulus. Animal's movement during the CS and US from one part of the box over the other, was defined as avoidance and escape responses, respectively. Both responses ceased the actual stimulus and stopped the trial. The time elapsed until the next trial (intertrial interval, ITI) was 15 seconds. While one experiment was carried out daily, an experiment consisted of 80 trials. Learning efficiency was expressed as percentage of the successful to the total avoidances. […] Dosing was carried out once a week, one hour before the measurement in the shuttle box.

CC(C)N(CCON=C1CCc2c1ccc1ccccc21)C(C)C [Example 4, 3-[2-(N-1-Methylethyl-2-propylamino)-ethoxyimino]-2,3-dihydro-1H-benz[e]indene]
inhibition in vivo at 2 mg/kg [1]: 100%
ED50 [1]: 0.19 mg/kg
Local analgesic effect EC50 (nervus ischiadicus): 0.18%
ED50 (nicotine spasm): 4 mg/kg
LD50 at 168 h [2]: 600 mg/kg

CCCC(C)(COC(N)=O)COC(N)=O [Meprobamate, reference compound]
minimal effective dose (shocks tolerated): 25 mg/kg
ED50 (spontaneous motility): 232 mg/kg
LD50 at 168 h [2]: 1350 mg/kg
ED50 (hexobarbital narcosis): 260 mg/kg

CN1C(=O)OC(C)(C)C1=O [Trimethadione, reference compound]
ED50 (pentetrazole spasm): 400 mg/kg

c1ccc2c3c(ccc2c1)C(=NOCCN1CCCC1)CC3 [Example 7, 3-[2-(N-Pyrpolidinyl)-ethoxyimino]-2,3-dihydro-1H-benz[e]indene]
Local analgesic effect EC50 (nervus ischiadicus): 0.20%
LD50 at 168 h [2]: 700 mg/kg

COc1ccccc1N1CCN(CC(O)CON=C2CCc3c2ccc2ccccc32)CC1 (stereo not drawn) [Example 19, 3-{3-[4-(2-Methoxyphenyl)-1-piperazinyl]-2-hydroxypropoxyimino}-2,3-dihydro-1H-benz[e]indene]
ED50 (spontaneous motility): 43 mg/kg
LD50 at 168 h [2]: > 1000 mg/kg
ED50 [3]: 65 mg/kg
ED50 (hexobarbital narcosis): 67 mg/kg

CN(C)CCCN1c2ccccc2Sc2ccc(Cl)cc21 [Chlorpromazine, reference compound]
Therapeutic index (Catalepsy MED / Conditioned Reflex ID50) (catalepsy): 1.5
Catalepsy MED (catalepsy): 20 mg/kg
ED50 ([4]; Rattus norvegicus): 13.2 mg/kg
LD50 at 168 h [2]: 315 mg/kg

CC(Cc1ccccc1)NCCC(c1ccccc1)c1ccccc1 (stereo not drawn) [Prenylamine, reference compound]
inhibition in vivo at 2 mg/kg [1]: 41%
ED50 [1]: 6.6 mg/kg

O=C(NC1CCCCC1)ON=C1CCc2c1ccc1ccccc21 [Example 22, 3-(O-Cyclohexylcarbamoyl)-oxime-2,3-dihydro-1H-benz[e]indene]
inhibition in vivo at 2 mg/kg [1]: 59%
LD50 at 168 h [2]: > 1000 mg/kg

c1ccc2c3c(ccc2c1)C(=NOCCCN1CCCCC1)CC3 [Example 9, 3-[3-(N-Piperidinyl)-propoxyimino]-2,3-dihydro-1H-benz[e]indene]
Local analgesic effect EC50 (nervus ischiadicus): 0.20%
LD50 at 168 h [2]: 320 mg/kg

Clc1cccc(N2CCN(CCCON=C3CCc4c3ccc3ccccc43)CC2)c1 [Example 12, 3-{3-[4-(3-Chlorophenyl)-1-piperazinyl]-propoxyimino}-2,3-dihydro-1H-benz[e]indene]
ED50 (pentetrazole spasm): 30 mg/kg
ED50 (spontaneous motility): ~100 mg/kg
inhibition in vivo at 2 mg/kg [1]: 56%
LD50 at 168 h [2]: > 1000 mg/kg
effect observed in the given dose, hexobarbital narcosis potentiation (hexobarbital narcosis; dose 200 mg/kg): 83%

CCN(CC)CCON=C1CCc2c1ccc1ccccc21 [Example 3, 3-[2-(N,N-Diethylamino)-ethoxyimino]-2,3-dihydro-1H-benz[e]indene]
ED50 (pentetrazole spasm): 96 mg/kg
ED50 (nicotine spasm): 29 mg/kg
LD50 at 168 h [2]: 640 mg/kg

OC(CCN1CCCCC1)(c1ccccc1)C1CCCCC1 (stereo not drawn) [Trihexyphenidyl, reference compound]
ED50 (nicotine spasm): 20 mg/kg

CN(C)CCON=C1CCc2c1ccc1ccccc21 [Example 1, 3-[2-(N,N-Dimethylamino)-ethoxyimino]-2,3-dihydro-1H-benz[e]indene]
LD50 at 168 h [2]: 820 mg/kg
effect observed in the given dose, hexobarbital narcosis potentiation (hexobarbital narcosis; dose 200 mg/kg): 100%

c1ccc2c3c(ccc2c1)C(=NOCCN1CCOCC1)CC3 [Example 11, 3-[2-(N-Morpholinoethoxyimino)]-2,3-dihydro-1H-benz[e]indene]
ED50 (pentetrazole spasm): 84 mg/kg
inhibition in vivo at 2 mg/kg [1]: 54%
LD50 at 168 h [2]: > 1000 mg/kg

CNC1=Nc2ccc(Cl)cc2C(c2ccccc2)=[N+]([O-])C1 [Chlordiazepoxide, reference compound]
minimal effective dose (shocks tolerated): 2.5 mg/kg
LD50 at 168 h [2]: 650 mg/kg

c1ccc2c3c(ccc2c1)C(=NOCCN1CCCCC1)CC3 [Example 8, 3-[2-(N-Piperidinyl)-ethoxyimlno]-2,3-dihydro-1H-benz[e]indene]
inhibition in vivo at 2 mg/kg [1]: 56%
LD50 at 168 h [2]: > 1000 mg/kg
effect observed in the given dose, hexobarbital narcosis potentiation (hexobarbital narcosis; dose 100 mg/kg): 67%

CSc1ccc2c(c1)N(CCC1CCCCN1C)c1ccccc1S2 (stereo not drawn) [Thioridazine]
Therapeutic index (Catalepsy MED / Conditioned Reflex ID50) (catalepsy): 0.7
Catalepsy MED (catalepsy): 80 mg/kg
ED50 ([4]; rat, dosing one hour before measurement): 108 mg/kg

CCN(CC)CC(=O)Nc1c(C)cccc1C [Lidocain, reference compound]
Local analgesic effect EC50 (nervus ischiadicus): 0.19%

OCCN1CCN(CC(O)CON=C2CCc3c2ccc2ccccc32)CC1 (stereo not drawn) [Example 18, 3-{3-[4-(2-Hydroxyethyl)-1-piperazinyl]-2-hydroxypropoxyimino}-2,3-dihydro-1H-benz[e]indene]
inhibition in vivo at 2 mg/kg [1]: 59%
LD50 at 168 h [2]: > 1000 mg/kg

Reference: patent publication US5439940A, “Benz[e]indene derivatives” (priority 1992, dated 1995)
